# Laboratory results: ChEMBL document CHEMBL1130905, “Asymmetric synthesis of antimitotic combretadioxolane with potent antitumor activity against multi-drug resistant cells” (Bioorg Med Chem Lett, 1998)
# Columns and labels:
# Tubulin [1] = molecular target: T1, Tubulin (Sus scrofa, UniProt P02554+P02550); test: In vitro tubulin polymerization-inhibitory activity.; assay type: protein assay
# PC-6 = test: Compound was evaluated for in vitro growth inhibition activity against sensitive PC-6 cell line.; assay type: functional, Rattus norvegicus
# Tubulin [2] = molecular target: T1, Tubulin; test: In vitro tubulin polymerization-inhibitory activity; 4-6; assay type: protein assay
# PC-12 = test: Compound was evaluated for in vitro growth inhibition activity against multi drug resistant (MDR) PC-12 cell line.; assay type: functional; settings: Rattus norvegicus
IC50 (Tubulin [1]),IC50 (Tubulin [2]),Compound,GI50 (PC-6; Homo sapiens),GI50 (PC-12),GI50 (PC-6; Rattus norvegicus)
> 50000 nM,–,COc1ccc([C@H]2OCO[C@@H]2c2cc(OC)c(OC)c(OC)c2)cc1O,–,–,–
–,4000 nM,COc1ccc([C@@H]2OCO[C@H]2c2cc(OC)c(OC)c(OC)c2)cc1O,5.41 nM,5.19 nM,–
–,–,CISPLATIN,–,300 nM,563 nM
–,–,CC[C@]1(O)C[C@H]2CN(CCc3c([nH]c4ccccc34)[C@@](C(=O)OC)(c3cc4c(cc3OC)N(C=O)[C@H]3[C@@](O)(C(=O)OC)[C@H](OC(C)=O)[C@]5(CC)C=CCN6CC[C@]43[C@@H]65)C2)C1 [VINCRISTINE],1.14 nM,104 nM,–
